Where two headings read alike, the source gives them in different places. Ends that are not written are not given here.

One assay has as its system three rotifer species. Briefly: Rotifer visual motility assay, summary statements over the three rotifer species. The assay is classed as in vivo, Adineta vaga, Philodina acuticornis and Brachionus. The settings on record: AMP 0.5 mg/mL. From the text: Briefly, the rotifer motility assay used herein in the presence of a biocontrol agent (e.g., AMP) may be used as a measure of relative rotifer viability and competency. Rotifer diet, of which algae is considered to be an important food source, is one of the key environmental factors that impact the growth and multiplication of rotifers. In effect, the inability of a rotifer to be mobile (i.e., inability to swim toward a food source and/or to have mobile cilia that help trap food) prevents the rotifer from ingesting sufficient nutrients to further grow and reproduce. Thus, any approach that reduces and/or inhibits rotifer motility has a significant impact on an individual rotifer and therefore rotifer populations. With respect to algae cultures, reducing and/or inhibiting rotifer motility prevents and/or reduces any negative impact rotifers have on algae cultures (e.g., open pond systems for algae biomass and biofuel production). […]
The effect of the insecticidal and non-insecticidal AMPs of Table 2 (Example 1) on three different rotifer species was measured. […]
Rotifer cultures were initiated in 12-well or 24-well plates at a density of approximately 100-200 rotifers/mL. […] The rotifer cultures were monitored by preparing microscopy slides with a small sample taken from the individual wells. […]

For another assay, the system named is three algae species. The assay is described as follows: Algae viability assay, summary statements over the three algae species. The settings on record: comparison of Tables 3 and 4 with Tables 5 and 6. The assay is classed as cell-based. As for the experimental part: (§1) This example provides the minimal inhibitory concentration (MIC) of antimicrobial peptides (AMPs) for algae. […] Therefore, the tolerance of algae to the AMPs listed in Table 2 of Example 1 was measured.
(§2) Briefly, the algae viability assay used herein measured the “health” of the algae cultures by looking at the color of the algae. […] A visual assay was used to determine the MIC for the individual AMPs on the algae. In each case, a light microscope with 20× magnification was used to observe algae color.
(§3) The effect of insecticidal and non-insecticidal AMPs on three different algae species was measured. The three algae species were Auxenochlorella protothecoides, Chlorella sorokiniana and Chlamydomonas reinhardtii.
Algae cultures were initiated in 96-well plates at an OD 750 of approximately 0.1. […] The antibiotics hygromycin and paromycin served as positive controls for inhibiting and/or reducing the growth rate of algae. Algae cultured in water or media served as a negative control (i.e., no effect on growth). The algae cultures were monitored by preparing microscopy slides with a small sample taken from the individual wells. The algae slides were then visualized under a 20× magnification microscope for algae viability as measured by algae color. […]

The next assay has as its system Chlorella protothecoides. As for the experimental part:
as §1, §2, §3
(§4) Algae cultures were initiated in 96-well plates at an OD 750 of approximately 0.1. […] The antibiotics hygromycin and paromycin served as positive controls for inhibiting and/or reducing the growth rate of algae. […] The algae cultures were monitored by preparing microscopy slides with a small sample taken from the individual wells. The algae slides were then visualized under a 20× magnification microscope for algae viability as measured by algae color.

Assay [1] relates to Chlamydomonas reinhardtii. As for the experimental part:
as §1, §2, §3, §4

Another assay has as its system Chlorella sorokiniana. As to the method: as §1, §2, §3, §4
Another assay concerns Brachionus. It counts as in vivo. The settings on record: AMP 0.5 mg/mL, 24 hr time point, room temperature, visual motility score. The text has this:
(§5) Briefly, the rotifer motility assay used herein in the presence of a biocontrol agent (e.g., AMP) may be used as a measure of relative rotifer viability and competency. Rotifer diet, of which algae is considered to be an important food source, is one of the key environmental factors that impact the growth and multiplication of rotifers. In effect, the inability of a rotifer to be mobile (i.e., inability to swim toward a food source and/or to have mobile cilia that help trap food) prevents the rotifer from ingesting sufficient nutrients to further grow and reproduce. Thus, any approach that reduces and/or inhibits rotifer motility has a significant impact on an individual rotifer and therefore rotifer populations. With respect to algae cultures, reducing and/or inhibiting rotifer motility prevents and/or reduces any negative impact rotifers have on algae cultures (e.g., open pond systems for algae biomass and biofuel production). In other words, reducing and/or inhibiting rotifer motility reduces and/or prevents rotifers (e.g., infestations) from ingesting and consequently damaging algae cultures use in biofuel production.
(§6) The effect of the insecticidal and non-insecticidal AMPs of Table 2 (Example 1) on three different rotifer species was measured. The three rotifer species were Adineta vaga and Philodina acuticornis (class Bdelloid rotifers), and Brachionus (Monogononta class). A visual motility assay was used to determine the impact of the individual AMPs on rotifer viability. In each case, a light microscope with 20× magnification was used to observe rotifer motility (activity). […] FIGS. 1A, 1C and 1E show a 20× magnification of Adineta vaga, Philodina acuticornis and Brachionus (untreated), respectively. FIGS. 1B, 1D and 1F show a 20× magnification of Adineta vaga, Philodina acuticornis and Brachionus (AMP treated), respectively.
(§7) Rotifer cultures were initiated in 12-well or 24-well plates at a density of approximately 100-200 rotifers/mL. The 12-well plates contained a volume of 1 mL per well, and the 24-well plates contained a volume of about 0.25 mL to about 0.35 mL per well. Individual rotifer cultures (individual wells) were incubated with a select AMP at a concentration of 0.5 mg/mL (or a range of about 78 μM to about 365 μM) for 18, 21 and 24 hours at room temperature. The rotifer cultures were monitored by preparing microscopy slides with a small sample taken from the individual wells. The slides were then visualized under a 20× magnification microscope for rotifer motility. […] The scoring system was based on observing a subset of the rotifer population from each well. The impact on the subset of rotifers observed served as a representative of the impact on the entire rotifer population for that particular AMP treatment.
(§8) A summary of the motility assay (or “Kill Assay”) for each insecticidal and non-insecticidal AMP incubated with the three different rotifer species for the 24 hour time point is provided below in Table 5 (insecticidal AMPs) and Table 6 (non-insecticidal AMPs). The 18 and 21 hour time points gave similar results to the 24 hour time point.

Another assay deals with Philodina acuticornis. It counts as in vivo. On the set-up: key to the marks not given beside the values. The settings on record: AMP 0.5 mg/mL, 24 hr time point, room temperature, visual motility score.
Description: as §5, §6, §7, §8

For another assay, the system named is Adineta vaga. It counts as in vivo. On the set-up: key to the marks not given beside the values. The settings on record: AMP 0.5 mg/mL, 24 hr time point, room temperature, visual motility score.
Description: as §5, §6, §7, §8

Where [2] appears, read: 5-6 days, room temperature, 96-well, algae colour under 20× microscope, ND = AMP killed all the algae.

FLPLIGKVLSGIL [Temporin F, Temporin-F]: in the assay on three rotifer species, the “negative impact on rotifer motility (in words)” value is “high negative impact”. In the assay with three algae species, the “tolerance of algae to the AMP (in words)” value is given as “highly tolerated by algae”. Also, in the assay with Chlorella protothecoides (setting [2]), the “Minimal Inhibitory Concentration (MIC) Chlorella protothecoides” value was 365 µM. In assay [1] (setting [2]), the “Minimal Inhibitory Concentration (MIC) Chlamydomonas reinhardtii” value was 91.3 µM. The “Minimal Inhibitory Concentration (MIC) Chlorella sorokiana” value in the assay on Chlorella sorokiniana (setting [2]) amounted to 730.7 µM.

On to FIGTALGIASAIPAIVKLFK [Ponericin W6], for which, in the assay with Brachionus, the ““Kill” Efficiency Brachionus” value is on record as “+++”. Moreover, the ““Kill” Efficiency Philodina” value in the assay on Philodina acuticornis is on record as “++”. Also, the ““Kill” Efficiency Adineta vaga” value with Adineta vaga is “++”. For the same sequence, in the assay with three rotifer species, the “negative impact on rotifer motility (in words)” value is reported as “high negative impact”. Further, the “tolerance of algae to the AMP (in words)” value in the assay on three algae species was “highly tolerated by algae”. In addition, the “Minimal Inhibitory Concentration (MIC) Chlorella protothecoides” value in the assay with Chlorella protothecoides (setting [2]) is on record as “No Affect”. Further, the “Minimal Inhibitory Concentration (MIC) Chlamydomonas reinhardtii” value in assay [1] (setting [2]) stood at 61.6 µM. Further, in the assay on Chlorella sorokiniana (setting [2]), the “Minimal Inhibitory Concentration (MIC) Chlorella sorokiana” value worked out at 492.5 µM.

In the case of “GWKDWLNKGKEWLKKKGPGIMKAALKAATQ [Ponericin G3]”, the ““Kill” Efficiency Brachionus” value in the assay with Brachionus is “+++”. Besides, in the assay on Philodina acuticornis, the ““Kill” Efficiency Philodina” value is reported as “+++”. For the same sequence, in the assay on Adineta vaga, the ““Kill” Efficiency Adineta vaga” value is “+++”. In addition, the “Minimal Inhibitory Concentration (MIC) Chlorella protothecoides” value with Chlorella protothecoides (setting [2]) amounted to 37 µM. Moreover, the “Minimal Inhibitory Concentration (MIC) Chlamydomonas reinhardtii” value in assay [1] (setting [2]) was 9.2 µM. In addition, the “Minimal Inhibitory Concentration (MIC) Chlorella sorokiana” value in the assay on Chlorella sorokiniana (setting [2]) is 37 µM.

For FFHHIFRGIVHVGKTIHRLVTG [Piscidin 1], the ““Kill” Efficiency Brachionus” value with Brachionus is “+++”. Also, the ““Kill” Efficiency Philodina” value in the assay on Philodina acuticornis is listed as “+++”. In addition, the ““Kill” Efficiency Adineta vaga” value in the assay with Adineta vaga is “+++”. Also, the “Minimal Inhibitory Concentration (MIC) Chlorella protothecoides” value in the assay on Chlorella protothecoides was determined as 12.2 µM. Besides, the “Minimal Inhibitory Concentration (MIC) Chlamydomonas reinhardtii” value in assay [1] came to 12.2 µM. For the same sequence, in the assay on Chlorella sorokiniana, the “Minimal Inhibitory Concentration (MIC) Chlorella sorokiana” value turned out to be 24.3 µM.

The values are drawn from patent US20140296137A1, “METHODS AND COMPOSITIONS FOR CONTROLLING ROTIFERS” (Los Alamos National Security, LLC, priority 2013, published 2014).
